From patent US6147097A, “Imidazole derivatives as anti-HIV agents” (Shionogi & Co., Ltd., priority 1994, dated 2000)
In brackets after ≈: the same amount, converted by molar mass. Where two headings read alike, the source gives them in different places.

What was measured:
[1] = cytotoxicity in MT-4 cells (MTT, culture medium in place of HIV); assay type: cell-based; conditions: human
Procedure: (§1) The anti-HIV activity of each of the compounds produced in Examples was assayed by the following procedures. (1) Human T cell line MOLT-4 clone 8 persistently infected by HIV (HTLV-IIIB strain) was cultured in an RPMI-1640 medium supplemented with 10% fetal calf serum, the culture supernatant was filtered, and the titer of virus was determined; the culture supernatant was stored at -80° C. On the other hand, the test compound was diluted with the above culture medium to predetermined concentrations and distributed in 50 μl aliquots into a 96-well microtiter plate. Then, d suspension of MT-4 cells was added in 100 μl aliquots (3.5×10^4 cells per well) and then the above HIV-containing supernatant diluted with the above culture medium was added, 50 μl (60 pfu (plaque forming units)) per well. (2) The plate was incubated in a CO2 incubator at 37° C. for 5 days. Then, 30 μl/well of 3-(4,5-dimethyl thiazol-2-yl)-2,5-diphenyltetrazolium bromide (MTT) (5 mg/ml PBS) was added and the incubation was further continued for 1 hour. The surviving cells reducing MTT yield precipitation of formazan. Therefore, 150 μl portions of the culture supernatant were removed from all wells and, instead, 150 μl of a solution (10% Triton X-100 and 0.4% (v/v) HCl-added isopropyl alcohol) was added. The plate was shaken on a plate mixer to dissolve the formazan. The OD of formazan was measured with a microreader at 560 nm arid 690 nm (reference wavelength) and the result was compared with that of control.
The cytotoxicity of each of the compounds produced in Examples was assayed. In place of the HIV-containing supernatant (the virus suspension) in (1) in Test Example 1, 50 μl of the culture medium was added to each well, and the cytotoxicity was determined in the same manner as that for (2) in Test Example 1.

[2] = biological target: T1, purified recombinant HIV-1 reverse transcriptase (Human immunodeficiency virus type 1 group M subtype B, UniProt P04585); experiment: reverse transcriptase inhibition, poly(rA)/(dT) template primer, [3H]dTTP uptake; assay type: biochemical
T1 construct: purified recombinant HIV-1 reverse transcriptase; made in house; host or cells: Escherichia coli
Procedure: The reverse transcriptase activity of each of the compounds synthesized in Examples was assayed by the following procedures.
Using the purified recombinant HIV-1 reverse transcriptase RT, E.C. 2.7.7.49) obtained by expression in Escherichia Coli, a 96-well plate assay system was established for assaying a large number of samples. The RT inhibitory activity was determined as follows. To 11 μl of a solution of the test inhibitor in water or MSO was added 100 μl of a reaction mixture (0.1 unit/100 μl RT, 50 mM Tris-HCl pH 8.3, 150 mM KCl, 10 mM MgCl2, 3 mM dithiothreitol, 0.1% Nonidet P-40, 10 μg/ml. poly(rA) and 10 μg/ml (dT)12-1.8 as template and primer, and 4 μM dTTP, 1 μCi/100 μl [^3 H]dTTP as substrate) and the mixture was incubated at 37° C. for 1 hour and, then, immediately cooled on ice. Using a cell harvester, the reaction mixture was transferred to a DEAE-filter mat (LKB-Pharmacia). Then, using the wash line of the cell harvester, the cells were washed twice with 5% Na2 HPO4 /H2 O and once with water and dried at 95° C. for 15 minutes. […] The inhibitory activity was expressed in percent inhibition relative to the uptake on water or DMSO control.

HIV (HTLV-IIIB strain) = experiment: microbe, parasite or virus in culture; assay type: cell-based; conditions: Human immunodeficiency virus 1, IIIB, MT4, 120 h
Procedure: as §1, with “(1) Human T cell line MOLT-4 clone 8 persistently infected by HIV (HTLV-IIIB strain) was cultured in an RPMI-1640 medium supplemented with 10% fetal calf serum, the culture supernatant was filtered, and the titer of virus was determined; the culture supernatant was stored at -80° C.” left out, “formazan.” for “formazan. The OD of formazan was measured with a microreader at 560 nm arid 690 nm (reference wavelength) and the result was compared with that of control.”

[3] = MT-4 cells, 60 pfu HIV per well, 37° C., 5 days, MTT, Tables 1 and 2, read-out: EC50
[4] = MT-4 cells, no virus, 37° C., 5 days, MTT, Table 3, read-out: CC50

Row | Structure (SMILES) | CC50 at 120 h ([1]; mt-4 cells) [µg/mL] | IC50 [2] [µM] | EC50 (HIV (HTLV-IIIB strain); [3]) [µg/mL] | CC50 at 120 h [1, 4] [µg/mL] | EC50 (HIV (HTLV-IIIB strain)) [µg/mL]
1 | CC(C)c1nc(CN)n(C)c1Sc1cccc(Cl)c1.Cl [Compound I-69, 2-aminomethyl-5-(3-chlorophenylthio)-4-isopropyl-1-methyl-1H-imidazole hydrochloride] | 6.3 | 6.92 | 0.25 |  | 
2 | CC(C)c1nc(COCCOC(N)=O)n(C)c1Sc1cc(Cl)cc(Cl)c1 [Compound I-61, (2-carbamoyloxy)ethoxymethyl-5-(3,5-dichlorophenylthio)-4-isopropyl-1-methyl-1H-imidazole] |  | 185 | 0.5 (≈ 1.2 µM) | 6.3 to 12.5 (≈ 15.1 to 29.9 µM) | 
3 | CCCn1c(CO)nc(C(C)C)c1Sc1cccc([N+](=O)[O-])c1 [Compound I-24, [4-isopropyl-5-(3-nitrophenylthio)-1-n-propyl-1H-imidazol-2-yl]methanol] |  | 2.98 | 0.008 (≈ 0.0239 µM) | 25 (≈ 74.5 µM) | 
4 | CCn1c(CCCOC(N)=O)nc(C(C)C)c1Sc1cc(Cl)cc(Cl)c1 [Compound I-149, 2-(3-carbamoyloxypropyl)-5-(3,5-dichlorophenylthio)-1-ethyl-4-isopropyl-1H-imidazole] | 6.3 (≈ 15.1 µM) | 0.769 | 0.01 (≈ 0.024 µM) |  | 
5 | CC(C)c1nc(CCOC(N)=O)n(Cc2cccc([N+](=O)[O-])c2)c1Sc1cc(Cl)cc(Cl)c1 [Compound 128b, 2-(2-Carbamoyloxyethyl)-5-(3,5-dichlorophenylthio)-4-isopropyl-1-(m-nitrobenzyl)-1H-i-imidazole] | 6.3 to 12.5 (≈ 12.4 to 24.5 µM) | > 196 | 0.13 (≈ 0.255 µM) |  | 
6 | CC(C)c1nc(CO)n(CC(C)(C)O)c1Sc1cc(Cl)cc(Cl)c1 [Compound I-153, 5-(3,5-dichlorophenylthio)-2-hydroxymethyl-1-(2-hydroxy-2-methylpropyl)-4-isopropyl-1H-imidazole] | 12.5 (≈ 32.1 µM) | 25.7 | 0.016 (≈ 0.0411 µM) |  | 
7 | CC(C)c1nc(CN)n(C)c1Cc1cc(Cl)cc(Cl)c1 [Compound I-101, 2-aminomethyl-5-(3,5-dichlorobenzyl)-4-isopropyl-1-methyl-1H-imidazole] |  | 80.7 | 1 (≈ 3.2 µM) | 10 to 100 (≈ 32 to 320 µM) | 
8 | Cc1nc(C(C)C#N)c(Sc2cccc(Cl)c2)n1C (stereo not drawn) [Compound I-97, 2-[5-(3-chlorophenylthio)-1,2-dimethyl-1H-imidazol-4-yl]propiononitrile] |  | 25.4 | 0.06 to 0.13 (≈ 0.206 to 0.445 µM) | 10 to 100 (≈ 34.3 to 343 µM) | 
9 | CC(C)c1nc(CCO)n(Cc2ccncc2)c1Sc1cc(Cl)cc(Cl)c1 [Compound 123b, 2-[5-(3,5-dichlorophenylthio)-4-isopropyl-1-(pyridin-4-ylmethyl)-1H-imidazol-2-yl]ethanol] | 12.5 to 25 (≈ 29.6 to 59.2 µM) | 0.355 | 0.003 (≈ 0.0071 µM) |  | 
10 | CC(C)c1nc(CN)n(Cc2ccccc2)c1Sc1cc(Cl)cc(Cl)c1 [Compound I-70, 2-aminomethyl-1-benzyl-5-(3,5-dichlorophenylthio)-4-isopropylimidazole] |  | 4.43 | 0.03 (≈ 0.0738 µM) | 6.3 to 12.5 (≈ 15.5 to 30.8 µM) | 
11 | CC(C)c1nc(CCOC(N)=O)n(Cc2ccncc2)c1Sc1cc(Cl)cc(Cl)c1 [Compound I-138, 2-(2-carbamoyloxyethyl)-5-(3,5-dichlorophenylthio)-4-isopropyl-1-(pyridin-4-yl)methyl-1H-imidazole] | 12.5 (≈ 26.9 µM) | 3.22 | 0.008 (≈ 0.0172 µM) |  | 
12 | CC(C)c1nc(CO)n(C(C)C)c1Sc1cc(Cl)cc(Cl)c1 [Compound I-27, [5-(3,5-dichlorophenylthio)-1,4-diisopropyl-1H-imidazol-2-yl]methanol] |  | 3.34 | 0.03 (≈ 0.0835 µM) | 10 to 100 (≈ 27.8 to 278 µM) | 
13 | CCn1c(COCCOC(N)=O)nc(C(C)C)c1Sc1cc(Cl)cc(Cl)c1 [Compound I-63, 2-(2-carbamoyloxyethoxy)methyl-5-(3,5-dichlorophenylthio)-1-ethyl-4-isopropyl-1H-imidazole] |  | 10.9 | 0.25 (≈ 0.578 µM) | 12.5 (≈ 28.9 µM) | 
14 | CC(C)c1nc(CN)n(Cc2cccnc2)c1Sc1cc(Cl)cc(Cl)c1 [Compound I-94, 2-aminomethyl-5-(3,5-dichlorophenylthio)-4-isopropyl-1-(pyridin-3-yl)methyl-1H-imidazole] |  | 4.66 | 0.03 (≈ 0.0736 µM) | 12.5 to 25 (≈ 30.7 to 61.4 µM) | 
15 | Cc1nc(C(C)C)c(Cc2cc(Cl)cc(Cl)c2)n1C [Compound I-100, 5-(3,5-dichlorobenzyl)-1,2-dimethyl-4-isopropyl-1H-imidazole] |  | 42.1 | 1 (≈ 3.36 µM) | 12.5 (≈ 42.1 µM) | 
16 | Cc1cc(C)cc([S+]([O-])c2c(C(C)C)nc(C)n2C)c1 (stereo not drawn) [Compound I-104, 5-(3,5-dimethylphenylsulfinyl)-4-isopropyl-1,2-dimethyl-1H-imidazole] |  | > 344 | 1 to 10 (≈ 3.44 to 34.4 µM) | 10 to 100 (≈ 34.4 to 344 µM) | 
17 | CC(C)c1c(Sc2cc(Cl)cc(Cl)c2)nc(CO)n1C [Compound I-39, [4-(3,5-dichlorophenylthio)-5-isopropyl-1-methyl-1H-imidazol-2-yl]methanol] |  | 198 | 1 to 10 (≈ 3.02 to 30.2 µM) | 10 to 100 (≈ 30.2 to 302 µM) | 
18 | COC(=O)C(C)c1nc(C)n(C)c1Sc1cc(C)cc(C)c1 (stereo not drawn) [Compound I-96, methyl 2-[1,2-dimethyl-5-(3,5-dimethylphenylthio)-1H-imidazol-4-yl]propionate] |  | 14.4 | 0.03 (≈ 0.0942 µM) | 10 to 100 (≈ 31.4 to 314 µM) | 
19 | CC(C)c1nc(CO)n(Cc2cccc3ccccc23)c1Sc1cc(Cl)cc(Cl)c1.Cl [Compound I-120, 5-(3,5-dichlorophenylthio)-2-hydroxymethyl-4-isopropyl-1-(1-naphthylmethyl)-1H-imidazole hydrochloride] | 100 | 99.6 | 0.13 |  | 
20 | CC(C)c1nc(COC(N)=O)n(C)c1Cc1cc(Cl)cc(Cl)c1 [Compound I-103, 2-carbamoyloxymethyl-5-(3,5-dichlorobenzyl)-4-isopropyl-1-methyl-1H-imidazole] |  | 19.1 |  | 10 to 100 (≈ 28.1 to 281 µM) | 0.5 (≈ 1.4 µM)
21 | CC(C)c1nc(CO)n(CCc2ccccc2)c1Sc1cc(Cl)cc(Cl)c1 [Compound I-121, 5-(3,5-dichlorophenylthio)-2-hydroxymethyl-4-isopropyl-1-(2-phenylethyl)-1H-imidazole] | 12.5 (≈ 29.7 µM) | 85.2 | 0.06 (≈ 0.142 µM) |  | 
22 | CC(C)c1nc(COC(N)=O)n(CCc2ccccn2)c1Sc1cc(Cl)cc(Cl)c1 [Compound I-129, 2-carbamoyloxymethyl-5-(3,5-dichlorophenylthio)-4-isopropyl-1-(2-(2-pyridyl)ethyl)-1H-imidazole] | 12.5 to 25 (≈ 26.9 to 53.7 µM) | 76.9 | 0.06 (≈ 0.129 µM) |  | 
23 | CCn1c(CO)nc(C(C)C)c1Sc1cc(Cl)cc(Cl)c1 [Compound I-25, 2-[5-(3,5-dichlorophenylthio)-1-ethyl-4-isopropyl-1H-imidazol-2-yl]methanol] |  | 1.39 | 0.004 (≈ 0.0116 µM) | 10 to 100 (≈ 29 to 290 µM) | 
24 | CC(C)c1nc(CCOC(N)=O)n(C)c1Sc1cc(Cl)cc(Cl)c1 [Compound I-81, 2-(2-carbamoyloxy)ethyl-5-(3,5-dichlorophenylthio)-4-isopropyl-1-methyl-1H-imidazole] |  | 7.73 |  | 10 to 100 (≈ 25.8 to 258 µM) | 0.13 (≈ 0.335 µM)
